Reference: patent US11286258B2, “Nature-inspired anticancer and antibacterial motifs and pharmaceutical composition thereof” (University of Sharjah, priority 2020, dated 2022)
In brackets after ≈: the same amount, converted by molar mass.

Columns and labels:
[1] = tested on: MRSA-2 (clinical isolate); experiment: MIC broth microdilution, MRSA-2; type: cell-based, Staphylococcus aureus; details: Staphylococcus aureus, MRSA; overnight incubation, Mueller-Hinton broth; read-out: MIC MRSA-2 (clinical isolate)
Method: (§1) Antibacterial activity: The compounds were tested for the minimum inhibitory concentrations (MIC), which is the lowest concentration of a chemical required to inhibit visible microbial growth following overnight incubation. MIC values were determined using broth microdilution method according to the Clinical and Laboratory Standards Institute guidelines (CLSI, 2015, M07-A10). Mueller-Hinton broth was used as a culture medium in all the experiments. Exponentially growing bacterial cells were prepared in Mueller-Hinton broth at a concentration of approximately 5×10^5 CFU/mL. Two-fold serial dilutions of the test compound (8 concentrations ranged between 100-0.78 μg/mL) were tested. […] In each experiment, solvent (DMSO) was used as a negative control, un-treated control (composing of bacteria in Mueller-Hinton broth) was used as a growth control, blank (culture media alone) was used as sterility control. The 96-well microplate with the test compounds was incubated overnight at 37° C. Turbidity in wells indicated bacterial growth.
(§2) The compounds were tested on six MDR Gram-positive bacteria including three clinical isolates of methicillin-resistant Staphylococcus aureus (MRSA-1, MRSA-2 and MRSA-3) and three reference MRSA strains (ATCC33591, ATCC33592 and ATCC700699). They were also tested on three MDR Gram-negative bacteria including New Delhi metallo-beta-lactamase (NDM-1) positive, carbapenem-resistant E. coli (ATCC BAA2469), extended-spectrum beta-lactamase (ESBL) producing, colistin-resistant E. coli (CDC-AR-0346) and carbapenem-resistant Acinetobacter baumannii (ATCC BAA1605), in addition to two non-MDR bacteria from the same species, namely E. coli (ATCC 25922) Acinetobacter baumannii (ATCC 19606).

[2] = tested on: MRSA-ATCC700699 (VISA); experiment: MIC broth microdilution, MRSA ATCC700699 (VISA); type: cell-based, Staphylococcus aureus; details: Staphylococcus aureus; strain intermediately resistant to vancomycin; overnight incubation; read-out: MIC MRSA-ATCC700699 (VISA)
Method: as §1, §2

[3] = tested on: 6 MRSA strains; experiment: MIC, panel of 6 MRSA strains; type: cell-based; details: Staphylococcus aureus, across the panel of tested Gram-positive strains, read-out: MIC against all the 6 MRSA strains
Method: as §1, §2

[4] = tested on: Acinetobacter baumannii ATCC 19606; experiment: MIC broth microdilution, A. baumannii ATCC 19606; type: cell-based; details: Acinetobacter baumannii, ATCC19606; not MDR; overnight incubation
Method: as §1, §2

[5] = tested on: MRSA-ATCC33591; experiment: MIC broth microdilution, MRSA ATCC33591; type: cell-based, Staphylococcus aureus; details: Staphylococcus aureus; overnight incubation, Mueller-Hinton broth; read-out: MIC MRSA-ATCC33591
Method: as §1, §2

[6] = tested on: E. coli CDC-AR-0346 (ESBL, colistin resistant); experiment: MIC broth microdilution, E. coli CDC-AR-0346; type: cell-based, Escherichia coli; details: Escherichia coli; MDR; overnight incubation
Method: as §1, §2

[7] = tested on: MRSA-1 (clinical isolate); experiment: MIC broth microdilution, MRSA-1; type: cell-based, Staphylococcus aureus; details: Staphylococcus aureus, MRSA; overnight incubation, Mueller-Hinton broth; read-out: MIC MRSA-1 (clinical isolate)
Method: as §1, §2

[8] = tested on: MRSA-ATCC33592; experiment: MIC broth microdilution, MRSA ATCC33592; type: cell-based, Staphylococcus aureus; details: Staphylococcus aureus; overnight incubation, Mueller-Hinton broth; read-out: MIC MRSA-ATCC33592
Method: as §1, §2

[9] = tested on: MDR E. coli strains; experiment: MIC, both MDR E. coli strains; type: cell-based; details: Escherichia coli, ATCCBAA2469; across ATCC BAA2469 and CDC-AR-0346
Method: as §1
The compounds were tested on six MDR Gram-positive bacteria including three clinical isolates of methicillin-resistant Staphylococcus aureus (MRSA-1, MRSA-2 and MRSA-3) and three reference MRSA strains (ATCC33591, ATCC33592 and ATCC700699). […]

[10] = tested on: MRSA-3 (clinical isolate); experiment: MIC broth microdilution, MRSA-3; type: cell-based, Staphylococcus aureus; details: Staphylococcus aureus, MRSA; overnight incubation, Mueller-Hinton broth; read-out: MIC MRSA-3 (clinical isolate)
Method: as §1, §2

[11] = tested on: Acinetobacter baumannii ATCC BAA1605 (carbapenem-resistant); experiment: MIC broth microdilution, A. baumannii ATCC BAA1605; type: cell-based; details: Acinetobacter baumannii, ATCCBAA1605, MDR; overnight incubation
Method: as §1, §2

[12] = tested on: E. coli ATCC BAA2469 (NDM-1 carbapenem-resistant); experiment: MIC broth microdilution, E. coli ATCC BAA2469; type: cell-based, Escherichia coli; details: Escherichia coli, ATCCBAA2469, MDR; overnight incubation
Method: as §1, §2

[13] = tested on: E. coli ATCC25922; experiment: MIC broth microdilution, E. coli ATCC25922; type: cell-based, Escherichia coli; details: Escherichia coli, ATCC25922; not MDR; overnight incubation
Method: as §1, §2

MIC [1]	MIC [2]	MIC [6]	MIC [7]	MIC [10]	Structure (SMILES)	MIC [3]	MIC [4]	MIC [5]	MIC [8]	MIC [9]	MIC [11]	MIC [12]	MIC [13]
8 µg/mL (≈ 13.7 µM)	100 µg/mL (≈ 171 µM)	> 1000 µg/mL	16 µg/mL (≈ 27.3 µM)	2 µg/mL (≈ 3.42 µM)	NCC[C@H](O)C(=O)N[C@@H]1C[C@H](N)[C@@H](O[C@H]2O[C@H](CN)[C@@H](O)[C@H](O)[C@H]2O)[C@H](O)[C@H]1O[C@H]1O[C@H](CO)[C@@H](O)[C@H](N)[C@H]1O [Amikacin, reference compound]	2 to 100 µg/mL (≈ 3.42 to 171 µM)	10 µg/mL (≈ 17.1 µM)	50 µg/mL (≈ 85.4 µM)	50 µg/mL (≈ 85.4 µM)	> 1000 µg/mL	1.25 µg/mL (≈ 2.13 µM)	> 1000 µg/mL	2.5 µg/mL (≈ 4.27 µM)
					O=C(O)c1cn(C2CC2)c2cc(N3CCNCC3)c(F)cc2c1=O [Ciprofloxacin, reference compound]	0.3 to 32 µg/mL (≈ 0.905 to 96.6 µM)	0.625 µg/mL (≈ 1.89 µM)	0.3 µg/mL (≈ 0.905 µM)	0.3 µg/mL (≈ 0.905 µM)	16 to 100 µg/mL (≈ 48.3 to 302 µM)	50 µg/mL (≈ 151 µM)	100 µg/mL (≈ 302 µM)	< 0.02 µg/mL
